Measurements: patent US8962665B2, “Thiazole and oxazole kinase inhibitors” (AB Science, priority 2010, dated 2015)

Target: T1, Syk (Homo sapiens, UniProt P43405)
T1 construct: SYK kinase was purified as a full length protein in a baculovirus system near homogeneity; made in house; host or cells: baculovirus system
Assay: Syk kinase HTRF (Kinease TK) assay
Type: biochemical
Experimental: SYK kinase was purified as a full length protein in a baculovirus system near homogeneity. JAKs kinases (JAK1, JAK2 and JAK3) were purchased either from Invitrogen or from Millipore. All kinases assays were performed with the Kinease TK (tyrosine kinase) HTRF (Homogeneous Time Resolved Fluorescence) assay developed by Cisbio international. […] Reactions were initiated upon introduction of the enzyme and terminated with the addition of one reaction volume (25 μl) of HTRF detection buffer. Plates were incubated for one hour at room temperature and the time resolved Fluorescence resonance energy transfer signal was measured in a Pherastar FS microplate reader (BMG Labtech). All data are the average of triplicate results with a standard deviation<10%.

| Structure (SMILES) | IC50 [µM] |
| --- | --- |
| Cc1ccnc(Nc2cccc(-c3cnc(-c4cccnc4)s3)n2)c1 [Example 020, (4-Methyl-pyridin-2-yl)-[6-(2-pyridin-3-yl-thiazol-5-yl)-pyridin-2-yl]-amine] | < 1 |
| Cc1ccnc(Nc2cccc(-c3cnc(-c4ccc[nH]c4=O)o3)n2)c1 [Example 045, 3-{5-[6-(4-methyl-pyridin-2-ylamino)-pyridin-2-yl]-oxazol-2-yl}-1H-pyridin-2-one] | < 1 |
| Cc1ccnc(Nc2cccc(-c3cnc(-c4nc5ccccc5o4)o3)n2)c1 [Example 048, [6-(2-benzoxazole-2-yl-oxazol-5-yl)-pyridin-2-yl]-(4-methyl-pyridin-2-yl)-amine] | < 1 |
| Cc1ccnc(Nc2cccc(-c3cnc(-c4ccccc4)s3)n2)c1 [Example 056, (4-Methyl-pyridin-2-yl)-[6-(2-phenyl-thiazol-5-yl)-pyridin-2-yl]-amine] | < 1 |
| Cc1ccnc(Nc2cccc(-c3cnc(-c4c(C)cccc4C)o3)n2)c1 [Example 062, {6-[2-(2,6-Dimethyl-phenyl)-oxazol-5-yl]-pyridin-2-yl}-(4-methyl-pyridin-2-yl)-amine] | 1 to 10 |
| Cc1ccnc(Nc2cccc(-c3cnc(-c4cccc(C#N)c4)s3)n2)c1 [Example 064, 3-{5-[6-(4-Methyl-pyridin-2-ylamino)-pyridin-2-yl]-thiazol-2-yl}-benzonitrile] | 1 to 10 |
| Cc1ccnc(Nc2cccc(-c3cnc(-c4ccc5[nH]ccc5c4)o3)n2)c1 [Example 069, {6-[2-(1H-Indol-5-yl)-oxazol-5-yl]-pyridin-2-yl}-(4-methyl-pyridin-2-yl)-amine] | < 1 |
| Cc1ccnc(Nc2cccc(-c3cnc(-c4ccccn4)s3)n2)c1 [Example 080, (4-Methyl-pyridin-2-yl)-[6-(2-pyridin-2-yl-thiazol-5-yl)-pyridin-2-yl]-amine] | < 1 |
| Cc1ccnc(Nc2cccc(-c3cnc(N4CCOCC4)o3)n2)c1 [Example 099, (4-Methyl-pyridin-2-yl)-[6-(2-morpholin-4-yl-oxazol-5-yl)-pyridin-2-yl]-amine] | < 1 |
| Cc1ccc(Nc2cccc(-c3cnc(-c4ccc5[nH]ccc5c4)o3)n2)nc1 [Example 116, {6-[2-(1H-Indol-5-yl)-oxazol-5-yl]-pyridin-2-yl}-(5-methyl-pyridin-2-yl)-amine] | 1 to 10 |
| Cc1ccc(Nc2cccc(-c3cnc(N4CCNC(=O)C4)o3)n2)nc1 [Example 118, 4-{5-[6-(5-Methyl-pyridin-2-ylamino)-pyridin-2-yl]-oxazol-2-yl}-piperazine-2-one] | < 1 |
| Clc1ccnc(Nc2cccc(-c3cnc(-c4ccsc4)o3)n2)c1 [Example 120, (4-Chloro-pyridin-2-yl)-[6-(2-thiophen-3-yl-oxazol-5-yl)-pyridin-2-yl]-amine] | 1 to 10 |
| O=C1CN(c2ncc(-c3cccc(Nc4cnccn4)n3)o2)CCN1 [Example 140, 4-{5-[6-(Pyrazin-2-ylamino)-pyridin-2-yl]-oxazol-2-yl}-piperazine-2-one] | < 1 |
